These are literature values, as cited in patent US20140332438A1, “WATER-SOLUBLE MELOXICAM GRANULES” (Boehringer Ingelheim Vetmedica GmbH, priority 2002, published 2014).

For the data set the following is noted: aqueous solution, according to EP-A-0 945 134.

As to `Cc1cnc(NC(=O)C2=C(O)c3ccccc3S(=O)(=O)N2C)s1` [meloxicam, 4-hydroxy-2-methyl-N-(5-methyl-2-thiazolyl)-2H-1,2-benzothiazine-3-carboxamide-1,1-dioxide], the solubility in water result is on record as “does not dissolve readily in water”.
